Reference: the NIST ThermoML archive (doi:10.1021/acs.jced.6b00279)
± gives the expanded uncertainty stated by the source.

Settings: Crystal; visual observation

## CCCC[n+]1ccccc1.[Br-] [1-butylpyridinium bromide]
  Normal melting temperature: 105.00 ± 2 °C
